What all share (format): functional, cell-based
For one assay, the system named is HL-60. Briefly: Cytotoxicity against human HL60 cells assessed as reduction in cell viability after 48 hrs by MTS assay. The conditions noted are these: HL-60, 48 h. A general note: Tetrazolium dyes change colour on reduction, which living cells bring about.
A further assay relates to A549. Briefly: Cytotoxicity against human A549 cells assessed as reduction in cell viability after 48 hrs by MTS assay. The following applies: A549, 48 h.
In another assay the test system is MCF7. In words: Cytotoxicity against human MCF7 cells assessed as reduction in cell viability after 48 hrs by MTS assay. The following applies: MCF7, 48 h.
The test system of another assay is SMMC-7721. Briefly: Cytotoxicity against human SMMC7721 cells assessed as reduction in cell viability after 48 hrs by MTS assay. The conditions noted are these: SMMC-7721, 48 h.
For the next assay, the system named is SW480. In words: Cytotoxicity against human SW480 cells assessed as reduction in cell viability after 48 hrs by MTS assay. The following applies: SW480, 48 h.

Where only a bound is given, the exact number is not on record here.

A word on the IC50: it is the concentration needed to halve the response being measured. For `CO[C@H]1C[C@H](O[C@H]2CC[C@@]3(C)C(=CC[C@]4(O)[C@@H]3C[C@@H](OC(=O)/C=C/C(C)C)[C@@]3(C)[C@]4(O)CC[C@@]3(O)C(C)=O)C2)O[C@H](C)[C@H]1O[C@H]1C[C@H](OC)[C@H](O[C@H]2C[C@@H](OC)[C@H](O)[C@@H](C)O2)[C@@H](C)O1`, the IC50 in the assay with HL-60 was 25.8 µM; in the assay on A549, over 40 µM; with MCF7, over 40 µM; in the assay on SMMC-7721, over 40 µM; in the assay on SW480, over 40 µM.

With `CO[C@H]1C[C@H](O[C@H]2CC[C@@]3(C)C(=CC[C@]4(O)[C@@H]3C[C@@H](OC(=O)/C=C(\C)C(C)C)[C@@]3(C)[C@]4(O)CC[C@@]3(O)C(C)=O)C2)O[C@H](C)[C@H]1O[C@H]1C[C@H](OC)[C@H](O[C@H]2C[C@@H](OC)[C@H](O)[C@@H](C)O2)[C@@H](C)O1`, the IC50 is 11.4 µM with HL-60; 27.7 µM in the assay with A549; 16.1 µM in the assay with MCF7; 27.9 µM in the assay on SMMC-7721; 30.3 µM with SW480.

Turning to `CO[C@H]1C[C@H](O[C@H]2CC[C@@]3(C)C(=CC[C@]4(O)[C@@H]3C[C@@H](OC(=O)/C=C(\C)C(C)C)[C@@]3(C)[C@]4(O)CC[C@@]3(O)C(C)=O)C2)O[C@H](C)[C@H]1O[C@H]1C[C@H](OC)[C@H](O[C@H]2C[C@@H](OC)[C@H](O[C@H]3C[C@@H](OC)[C@H](O)[C@@H](C)O3)[C@@H](C)O2)[C@@H](C)O1`, the 50% inhibitory concentration (IC50) in the assay on HL-60 is 12.2 µM; with A549, over 40 µM; in the assay on MCF7, 18 µM; in the assay with SMMC-7721, 30.8 µM; in the assay with SW480 it was 28.8 µM.

Regarding `CO[C@H]1C[C@H](O[C@H]2CC[C@@]3(C)C(=CC[C@]4(O)[C@@H]3C[C@@H](OC(=O)/C=C(\C)C(C)C)[C@@]3(C)[C@]4(O)CC[C@@]3(O)C(C)=O)C2)O[C@H](C)[C@H]1O[C@H]1C[C@H](O)[C@H](O[C@H]2C[C@@H](OC)[C@H](O)[C@@H](C)O2)[C@@H](C)O1`, the half-maximal inhibitory concentration (IC50) in the assay on HL-60 was 12.9 µM; with A549, 30.4 µM; in the assay with MCF7, 17.2 µM; in the assay with SMMC-7721, 27.4 µM; with SW480, 24.8 µM.

For `CO[C@H]1C[C@H](O[C@H]2[C@@H](OC)C[C@H](O[C@H]3CC[C@@]4(C)C(=CC[C@]5(O)[C@@H]4C[C@@H](OC(=O)/C=C/c4ccccc4)[C@@]4(C)[C@]5(O)CC[C@@]4(O)C(C)=O)C3)O[C@@H]2C)O[C@H](C)[C@H]1O`, the IC50 in the assay with HL-60 stood at 20.6 µM; with A549, 35.5 µM; with MCF7 it was 25.6 µM; in the assay with SMMC-7721 it was 33.1 µM; in the assay on SW480 it was 36.7 µM.

In the case of `CO[C@H]1C[C@H](O[C@H]2CC[C@@]3(C)C(=CC[C@]4(O)[C@@H]3C[C@@H](OC(=O)/C=C(\C)C(C)C)[C@@]3(C)[C@]4(O)CC[C@@]3(O)C(C)=O)C2)O[C@H](C)[C@H]1O`, the half-inhibitory concentration (IC50) with HL-60 was 25.6 µM; in the assay on A549, over 40 µM; in the assay on MCF7, over 40 µM; in the assay on SMMC-7721, over 40 µM; with SW480, over 40 µM.

For the compound `CO[C@H]1C[C@H](O[C@H]2[C@@H](OC)C[C@H](O[C@H]3CC[C@]4(C)[C@H]5C[C@@H](OC(=O)/C=C(\C)C(C)C)[C@@]6(C)[C@](O)(CC[C@@]6(O)C(C)=O)[C@]5(O)C[C@@H]5O[C@@]54C3)O[C@@H]2C)O[C@H](C)[C@H]1O`, the IC50 with HL-60 was 15.8 µM; with A549 it was over 40 µM; with MCF7, over 40 µM; in the assay on SMMC-7721 it was over 40 µM; in the assay with SW480, over 40 µM.

In the case of `CO[C@H]1C[C@H](O[C@H]2CC[C@@]3(C)C(=CC[C@]4(O)[C@@H]3C[C@@H](OC(=O)c3ccc(O)cc3)[C@@]3(C)[C@]4(O)CC[C@@]3(O)C(C)=O)C2)O[C@H](C)[C@H]1O[C@H]1C[C@H](OC)[C@H](O[C@H]2C[C@@H](OC)[C@H](O)[C@@H](C)O2)[C@@H](C)O1`, the IC50 in the assay on HL-60 was 29.1 µM; in the assay on A549, over 40 µM; in the assay on MCF7, over 40 µM; in the assay with SMMC-7721, over 40 µM; in the assay with SW480 it was over 40 µM.

For `CO[C@H]1C[C@H](O[C@H]2CC[C@@]3(C)C(=CC[C@]4(O)[C@@H]3C[C@@H](OC(=O)c3ccccc3)[C@@]3(C)[C@]4(O)CC[C@@]3(O)C(C)=O)C2)O[C@H](C)[C@H]1O[C@H]1C[C@@H](OC)[C@H](O)[C@@H](C)O1`, the IC50 was 15.6 µM in the assay with HL-60; over 40 µM with A549; over 40 µM in the assay on MCF7; over 40 µM with SMMC-7721; over 40 µM with SW480.

In the case of `COc1cc(C(=O)O[C@@H]2C[C@@H]3[C@@]4(C)CC[C@H](O[C@H]5C[C@H](O)[C@H](O[C@H]6C[C@H](OC)[C@H](O[C@H]7C[C@@H](OC)[C@H](O)[C@@H](C)O7)[C@@H](C)O6)[C@@H](C)O5)CC4=CC[C@@]3(O)[C@@]3(O)CC[C@@](O)(C(C)=O)[C@@]23C)ccc1O`, the IC50 is 37.9 µM in the assay on HL-60; over 40 µM with A549; over 40 µM in the assay with MCF7; over 40 µM in the assay with SMMC-7721; over 40 µM in the assay on SW480.

Consider `CO[C@H]1C[C@H](O[C@H]2CC[C@@]3(C)C(=CC[C@]4(O)[C@@H]3C[C@@H](OC(=O)/C=C(\C)C(C)C)[C@@]3(C)[C@]4(O)CC[C@@]3(O)C(C)=O)C2)O[C@H](C)[C@H]1O[C@H]1C[C@@H](OC)[C@H](O)[C@@H](C)O1`, for which the IC50 in the assay on HL-60 is 15.4 µM; with A549 it was over 40 µM; in the assay with MCF7 it was over 40 µM; in the assay with SMMC-7721, over 40 µM; in the assay on SW480, over 40 µM.

Turning to `CO[C@H]1C[C@H](O[C@H]2[C@@H](O)C[C@H](O[C@H]3CC[C@@]4(C)C(=CC[C@]5(O)[C@@H]4C[C@@H](OC(=O)/C=C(\C)C(C)C)[C@@]4(C)[C@]5(O)CC[C@@]4(O)C(C)=O)C3)O[C@@H]2C)O[C@H](C)[C@H]1O`, the IC50 is 15.7 µM with HL-60; over 40 µM in the assay on A549; over 40 µM with MCF7; over 40 µM with SMMC-7721; over 40 µM in the assay on SW480.

For `C/C=C(\C)C(=O)O[C@@H]1C[C@@H]2[C@@]3(C)CC[C@H](O[C@H]4C[C@H](OC)[C@H](O[C@H]5C[C@H](OC)[C@H](O[C@H]6C[C@@H](OC)[C@H](O)[C@@H](C)O6)[C@@H](C)O5)[C@@H](C)O4)CC3=CC[C@@]2(O)[C@@]2(O)CC[C@@](O)(C(C)=O)[C@@]12C`, the IC50 with HL-60 is 15.6 µM; with A549, over 40 µM; with MCF7, over 40 µM; in the assay with SMMC-7721, over 40 µM; in the assay on SW480 it was over 40 µM.

Source of the values: ChEMBL document CHEMBL4219202, “C21 steroidal glycosides with cytotoxic activities from Cynanchum otophyllum” (Bioorg Med Chem Lett, 2018).
